Measured values reported in patent US8835433B2, “Optically pure diastereomers of 10-Propargyl-10-deazaaminopterin and methods of using same for the treatment of cancer” (Allos Therapeutics, Inc., priority 2010, dated 2014).
pIC50: −log10 of the molar value.

Columns and labels:
[1] = system: NCI-H460 (lung cancer) human tumor cell line; assay: MTS growth inhibition assay, NCI-H460; assay type: cell-based
Experimental: The agents PDX, PDX-10a, PDX-10b, were evaluated for growth inhibitory activity against, MDA-MB-435, SKBR-3 and NCI-H460 human tumor cell lines. Growth inhibition was measured by MTS assay following three hours of continuous treatment and a seventy-two hour recovery incubation. The purpose of these studies was to determine the cytotoxic activity of the compounds in the tumor cell lines studies studied.
Materials and Methods. Preparation of PDX-10a and PDX-10b was performed as discussed in Examples 1-2. The PDX compounds were diluted in dimethylsulfoxide (DMSO) at a concentration of 20 mM. From this solution a stock solution of 2 mM was made by dilution with phosphate-buffered saline (PBS). This 2 mM stock solution in 10% DMSO/90% PBS was used to make 2× concentrations of the titration series in cell growth medium which was added to the cell cultures in a 1:1 ratio to make 1× concentrations. Cell lines—The human tumor cell lines: MDA-MB-435 (melanoma), SKBR-3 (breast cancer) and NCI-H460 (lung cancer) were cultured in RPMI medium (RPMI; Nova Tech, Grand Island, N.Y.) containing ten percent dialyzed fetal bovine serum (FBS; Nova Tech). Once cells reached seventy percent confluency, they were trypsinized and resuspended in an alternate media (RPMI containing five percent dialyzed FBS (Hyclone, Logan, Utah). One day prior to treatment (Day 0), cultures were suspended at a concentration of 1−7.5×10^4 cell/ml and 100 μl aliquots were plated into each well of a 96-well microtiter plate at a final concentration of 1×10^3-7.5×10^3 cells/well. Cells were incubated for 24 hours at 37° C. prior to exposure with agents.
Test Agents—racemic PDX, and individual diastereomers PDX-10a and PDX-10b were prepared as described above. Cells were treated 24 hours after plating (Day 1) with vehicle (media) alone or the above test agents for three hours at concentrations between 3 μM and 10 μM.
Single Agent Pulse Studies—Treatment with test agents or standard agents (controls) was initiated 24 hours after plating cells (Day 1). Cells were incubated at 37° C. with each of the test agents or a “chemococktail” (positive control) consisting of 215 μM Etoposide, 20 μM Taxol, 38.5 nM Velcade at final concentration for three hours. Following treatment, drug was removed, growth media added, and cells incubated at 37° C. for 72 hours. Following incubation, the viable cell number was quantified by the MTS assay described below. Experiments were repeated twice at the same concentrations. Results from these studies were used to calculate an IC50 value (concentration of drug that inhibits cell growth by 50% of the vehicle) for each compound. IC50 values were generated with Prizm software.
MTS Assay—Cell viability was determined using the MTS assay. This colorimetric procedure measures conversion of the MTS reagent (a tetrazolium salt) to formazan by living cells. Formazan production was quantified by spectrophotometric measurement at 490 nm and is proportional to viable cell number. For these studies, cells were cultured and treated as listed above. At the end of the treatment, 20 μl MTS tetrazolium (1.9 mg/ml in PBS, pH 6.0) was added to the cells for 1 hour at 37° C. Absorbance (OD) values were measured using a Dynex HD microplate reader at a single wavelength of 490 nm.
Data Analysis—Data from each experiment was collected and expressed as OD490 versus the log10 of the test agent concentration. Using the statistical analysis package of the Prizm analytical software (GraphPad, San Diego, Calif.), a non-linear curve fit was performed which yielded the 50% inhibition concentration of the test article (IC50).

[2] = system: CWR22-RV1 (prostate) cell lines; assay: MTS growth inhibition assay, CWR22-RV1; assay type: cell-based; details: Homo sapiens, CWR22Rv1, separate experiments
[3] = Homo sapiens, NCI-H460, NCI-H460 (lung), 3 h treatment, 72 h recovery, MTS
[4] = Homo sapiens, NCI-H460, NCI-H460 repeat assay

pIC50 [1, 3] | pIC50 [1, 4] | pIC50 ([1]; NCI-H460 repeat assay) | SMILES | pIC50 [2]
7.34 | 7.34 |  | C#CC[C@H](Cc1cnc2nc(N)nc(N)c2n1)c1ccc(C(=O)N[C@@H](CCC(=O)O)C(=O)O)cc1 (single isomer, unassigned) [PDX-10b] | 8.07
6.54 | 6.77 | 6.77 | C#CC[C@@H](Cc1cnc2nc(N)nc(N)c2n1)c1ccc(C(=O)N[C@@H](CCC(=O)O)C(=O)O)cc1 (single isomer, unassigned) [PDX-10a] | 7.88
